Starred links: 1 amine or outer side, 2 acyl side, 3 side chain; linkers in the order of their positions; H or OH if unused. Non-standard residues stand in square brackets, D forms with d. Residues, ends and D or L forms follow the SMILES beside them. Groups on a side chain read outwards from the residue. *: point of attachment. C20 diacid = O=C(O)CCCCCCCCCCCCCCCCCCC(=O)*; γGlu = O=C(O)[C@H](CCC(=O)[*:2])N[*:1]; NMeI = CC[C@H](C)[C@H](NC)C(=O)O; AEEA = NCCOCCOCC(=O)O
Columns and labels:
[1] = Thioflavin T fibril formation assay of purified peptides; format: physicochemical; settings: pH 7.5, ThT assay
Protocol: Thioflavin T fibril formation assay: Peptides were dissolved as 267 µM in 50 mM phosphate buffer pH 7.5 for 2 h at room temperature on a rocking table. The samples were then divided into three replicates of 80 µl/well and mixed with 2 µl/well Thioflavin T (ThT)to a final concentration of 4 µM ThT in a black 384 well microplate with a clear bottom (Greiner #781096). The plate was inserted in a CLARIOstar Plus microplate reader (BMG Labtech) and fibril formation was measured as an increase in fluorescence emission at 480 nm (excitation at 450 nm) during 96 h at 40°C with cycles of 5 min rest and 5 min linearshaking at700 rpm.
Compounds were dissolved to 200 µM (ca 1.0 mg/ml) in 50 mM phosphate buffer with preparation and ThT assay performed as described in the "General procedure for determination of fibril formation of peptides." above. Furthermore, samples were adjusted to pH values as indicated below. Additional co-formulations of compounds with semaglutide were prepared by dissolving compounds to 200 µM in commercially available semaglutide drug product (Ozempic®); these co-formulations were adjusted to pH 7.4.

[2] = molecular target: T1, hCRHR2 (Homo sapiens, UniProt Q13324); test: HTRF cAMP assay, determination of hCRHR2 potency (peptide libraries 5 conc., purified peptides 11 conc.); format: cell-based; settings: for Selectivity ratio (hCRHR1/ hCRHR2): hCRHR1-EC50/hCRHR2-EC50; for EC50: purified peptides, CHO-K1 cells stably expressing hCRHR2, cAMP HTRF, read-out: hCRHR2 EC50
T1 sequence (Q13324 1-411): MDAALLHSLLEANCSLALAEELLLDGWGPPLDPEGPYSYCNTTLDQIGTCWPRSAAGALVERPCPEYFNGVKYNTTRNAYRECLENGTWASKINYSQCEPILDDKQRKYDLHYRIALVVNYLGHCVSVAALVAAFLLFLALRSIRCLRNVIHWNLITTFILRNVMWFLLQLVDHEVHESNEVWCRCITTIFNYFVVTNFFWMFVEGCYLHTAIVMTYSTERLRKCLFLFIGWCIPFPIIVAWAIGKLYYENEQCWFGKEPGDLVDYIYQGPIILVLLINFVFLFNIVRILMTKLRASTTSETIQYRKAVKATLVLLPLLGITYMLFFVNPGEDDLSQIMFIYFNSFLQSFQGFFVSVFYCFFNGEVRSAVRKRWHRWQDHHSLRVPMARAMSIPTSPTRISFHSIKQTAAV
Summary of the method: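 Potency was read as cAMP accumulation in a stable CHO-K1 line expressing human CRHR2, used in suspension right after thawing. Detection relied on energy transfer from antibody-bound cryptate to d2-cAMP.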

[3] = molecular target: T2, hCRHR1 (Homo sapiens, UniProt P34998); test: HTRF cAMP assay, determination of hCRHR1 potency (peptide libraries 5 conc., purified peptides 11 conc.); format: cell-based; settings: purified peptides; CHO-K1 cells stably expressing hCRHR1, cAMP HTRF; read-out: hCRHR1 EC50
T2 sequence (P34998 24-415): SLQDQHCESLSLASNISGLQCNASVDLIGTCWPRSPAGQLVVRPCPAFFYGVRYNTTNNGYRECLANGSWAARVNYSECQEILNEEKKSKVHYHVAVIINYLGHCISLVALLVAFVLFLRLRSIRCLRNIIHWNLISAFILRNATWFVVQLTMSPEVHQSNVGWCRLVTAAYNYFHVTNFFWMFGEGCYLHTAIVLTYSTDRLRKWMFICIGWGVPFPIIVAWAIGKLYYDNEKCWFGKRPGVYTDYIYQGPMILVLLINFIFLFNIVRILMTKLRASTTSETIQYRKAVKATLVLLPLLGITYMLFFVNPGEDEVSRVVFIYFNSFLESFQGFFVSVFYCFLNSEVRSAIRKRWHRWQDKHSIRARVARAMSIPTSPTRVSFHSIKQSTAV
Summary of the method: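 CHO-K1 cells stably expressing human CRHR1, thawed from frozen stocks just before use, were stimulated in suspension with agonist peptides. cAMP was measured by HTRF competitive immunoassay (cryptate anti-cAMP antibody vs d2-cAMP).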

[4] = Chemical stability of purified peptides (RP-UHPLC main peak purity loss); format: physicochemical; settings: pH 7.5, 40°C; for Chemical stability at pH 7.5 after 28 days at 40°C (% degradation): second value of cell; for Chemical stability at pH 7.5 after 14 days at 40°C (% degradation): first value of cell
Protocol: Chemical stability was tested at a concentration of approximately of 1.0 mg/ml peptide in the following vehicles: 50 mM phosphate buffer pH 7.5. Dissolved samples were incubated for at least 2 h at room temperature on a rocking table. The main peak purity at time zero (T0) was determined using reversed phase chromatography. The samples were incubated at 40°C for 14 days (T14) and 28 days (T28). The samples were analyzed with reversed phase chromatography and size exclusion chromatography.
Reversed Phase chromatography was performed on a Thermo Dionex Ultimate UHPLC system with UV detection at 215 nm) and equipped with a Kinetex column (1.7 µm, C8, 100 Å, 150 x 2.1 mm (00F-4499-AN)). Analysis was performed by gradient elution with buffer A (0.1% TFA in 95:5 H2O:acetonitrile) and buffer B (0.1% TFA in 5:95 H2O: acetonitrile) at a column temperature of 50 °C (gradient used 25-55%B over 40 min. Flowrate was 0.5 mL/min. The main peak purity was determined from the integrated chromatogram as the area under the main peak relative to the total peak area. The purity loss was calculated as the difference between the T0 and T14 time point and/or as the difference between the T0 and T28 time point.
The chemical stability of selected peptides was evaluated at varying pH's at 40° C over 28 days. Samples were prepared and analysed as described in procedure with the addition of pH adjusting samples to the targets indicated below. As a comparator,r commercially available semaglutide drug product (Ozempic®, Novo Nordisk) was included in the sample set.

[5] = pH 7.5

SMILES | Fibrillation (pH 7.5) [1] | Selectivity ratio (hCRHR1/ hCRHR2) [2] | EC50 [2] | EC50 [3] | Chemical stability at pH 7.5 after 28 days at 40°C (% degradation) [4] | Solubility pH 7.5, target conc. =10 mg/mL (measured mg/mL) [5] | Chemical stability at pH 7.5 after 14 days at 40°C (% degradation) [4]
CC[C@H](C)[C@H](NC(=O)[C@H](CCC(=O)O)NC(=O)[C@H](C)NC(=O)[C@H](CC(N)=O)NC(=O)[C@@H](NC(=O)[C@H](CCCCNC(=O)COCCOCCNC(=O)COCCOCCNC(=O)CC[C@H](NC(=O)CC[C@H](NC(=O)CCCCCCCCCCCCCCCCCCC(=O)O)C(=O)O)C(=O)O)NC(=O)[C@H](C)NC(=O)[C@H](CCC(N)=O)NC(=O)[C@H](CCC(=O)O)NC(=O)[C@H](CCCNC(=N)N)NC(=O)[C@H](C)NC(=O)[C@H](C)NC(=O)[C@H](CCCNC(=N)N)NC(=O)[C@H](C)NC(=O)[C@H](CCCNC(=N)N)NC(=O)[C@H](C)NC(=O)[C@H](CCC(N)=O)NC(=O)[C@H](CCC(=O)O)NC(=O)[C@H](CC(C)C)NC(=O)[C@H](CC(C)C)NC(=O)[C@@H](NC(=O)[C@H](CCC(N)=O)NC(=O)[C@H](CC(C)C)NC(=O)[C@H](CC(C)C)NC(=O)CNC(=O)[C@@H](NC(=O)[C@@H]1CCCN1C(=O)[C@@H](NC(=O)[C@H](CC(=O)O)NC(=O)[C@H](CC(C)C)NC(=O)[C@H](CO)NC(=O)[C@H](CC(C)C)NC(=O)[C@@H](NC(=O)[C@@H]1CCCN1)C(C)C)C(C)C)[C@@H](C)CC)[C@@H](C)CC)[C@@H](C)O)C(=O)N[C@@H](CC(C)C)C(=O)N[C@@H](C)C(=O)N[C@@H](CCC(=O)O)C(=O)N[C@H](C(N)=O)C(C)C [SEQ ID NO: 7] (H-PVLSLDVPIGLLQILLEQARARAAREQAK([AEEA-AEEA-γGlu-γGlu-C20 diacid])TNAEILAEV-NH2) | No | >2000 | 2.5 nM | > 5 µM | -23% | 9.8 mg/mL | 
CC[C@H](C)[C@H](NC)C(=O)N[C@H](C(=O)N[C@@H](CC(C)C)C(=O)N[C@@H](CO)C(=O)N[C@@H](CC(C)C)C(=O)N[C@@H](CC(=O)O)C(=O)N[C@H](C(=O)N1CCC[C@H]1C(=O)N[C@H](C(=O)NCC(=O)N[C@@H](CC(C)C)C(=O)N[C@@H](CC(C)C)C(=O)N[C@@H](CCC(N)=O)C(=O)N[C@H](C(=O)N[C@@H](CC(C)C)C(=O)N[C@@H](CC(C)C)C(=O)N[C@@H](CCC(=O)O)C(=O)N[C@@H](CCC(N)=O)C(=O)N[C@@H](C)C(=O)N[C@@H](CCCNC(=N)N)C(=O)N[C@@H](C)C(=O)N[C@@H](CCCNC(=N)N)C(=O)N[C@@H](C)C(=O)N[C@@H](C)C(=O)N[C@@H](CCCNC(=N)N)C(=O)N[C@@H](CCC(=O)O)C(=O)N[C@@H](CCC(N)=O)C(=O)N[C@@H](C)C(=O)N[C@@H](CCCCNC(=O)COCCOCCNC(=O)COCCOCCNC(=O)CC[C@H](NC(=O)CC[C@H](NC(=O)CCCCCCCCCCCCCCCCCCC(=O)O)C(=O)O)C(=O)O)C(=O)N[C@@H](CCC(=O)O)C(=O)N[C@@H](CC(N)=O)C(=O)N[C@@H](C)C(=O)N[C@@H](CCC(=O)O)C(=O)N[C@H](C(=O)N[C@@H](CC(C)C)C(=O)N[C@@H](C)C(=O)N[C@@H](CCC(=O)O)C(=O)N[C@H](C(N)=O)C(C)C)[C@@H](C)CC)[C@@H](C)CC)[C@@H](C)CC)C(C)C)C(C)C [SEQ ID NO: 18] (H-[NMeI]VLSLDVPIGLLQILLEQARARAAREQAK([AEEA-AEEA-γGlu-γGlu-C20 diacid])ENAEILAEV-NH2) | No | >3571 | 1.4 nM | > 5 µM |  | 11 mg/mL | -2.2 / ND %
CC[C@H](C)[C@H](N)C(=O)N[C@H](C(=O)N[C@@H](CC(C)C)C(=O)N[C@@H](CO)C(=O)N[C@@H](CC(C)C)C(=O)N[C@@H](CC(=O)O)C(=O)N[C@H](C(=O)N1CCC[C@H]1C(=O)N[C@H](C(=O)NCC(=O)N[C@@H](CC(C)C)C(=O)N[C@@H](CC(C)C)C(=O)N[C@@H](CCC(N)=O)C(=O)N[C@H](C(=O)N[C@@H](CC(C)C)C(=O)N[C@@H](CC(C)C)C(=O)N[C@@H](CCC(=O)O)C(=O)N[C@@H](CCC(N)=O)C(=O)N[C@@H](C)C(=O)N[C@@H](CCCNC(=N)N)C(=O)N[C@@H](C)C(=O)N[C@@H](CCCNC(=N)N)C(=O)N[C@@H](C)C(=O)N[C@@H](C)C(=O)N[C@@H](CCCNC(=N)N)C(=O)N[C@@H](CCC(=O)O)C(=O)N[C@@H](CCC(N)=O)C(=O)N[C@@H](C)C(=O)N[C@@H](CCCCNC(=O)COCCOCCNC(=O)COCCOCCNC(=O)CC[C@H](NC(=O)CC[C@H](NC(=O)CCCCCCCCCCCCCCCCCCC(=O)O)C(=O)O)C(=O)O)C(=O)N[C@H](C(=O)N[C@@H](CC(N)=O)C(=O)N[C@H](C(=O)N[C@@H](CCC(=O)O)C(=O)N[C@H](C(=O)N[C@@H](CC(C)C)C(=O)N[C@@H](C)C(=O)N[C@@H](CCC(=O)O)C(=O)N[C@H](C(N)=O)C(C)C)[C@@H](C)CC)[C@@H](C)CC)[C@@H](C)O)[C@@H](C)CC)[C@@H](C)CC)C(C)C)C(C)C [SEQ ID NO: 13] (H-IVLSLDVPIGLLQILLEQARARAAREQAK([AEEA-AEEA-γGlu-γGlu-C20 diacid])TNIEILAEV-NH2) | No | >926 | 5.4 nM | > 5 µM | -1.6% | 8.9 mg/mL | -0.3%

Reference: patent EP4810052A2, “HCRHR2 SELECTIVE POLYPEPTIDES” (Gubra A/S, priority 2023, dated 2026)
